# Measured values: patent US20110190365A1, “Insecticidal 4-phenyl-1H-pyrazoles” (Bayer Crop Science AG, priority 2008, published 2011)
# Experiment: log P by HPLC on a reversed-phase column (C18), EEC Directive 79/831 Annex V.A8
# Format: physicochemical
# Conditions: HCOOH
# Protocol: The stated log P values were determined in accordance with EEC Directive 79/831 Annex V.A8 by HPLC (High Performance Liquid Chromatography) using a reversed-phase column (C18).
row,Structure (SMILES),log P (HCOOH)
1,CC(C)(CC(F)(F)F)NC(=O)c1ccc(-n2nc(C(F)(F)F)c(-c3cc(Cl)cc(Cl)c3)c2N)cc1 [I-A-Q2-069],I-A-Q2-069: log P (HCOOH): 4.83
2,Cc1cc(-n2nc(C(F)(F)F)c(-c3cc(Cl)cc(Cl)c3)c2N)ccc1C(=O)NCc1ccncc1 [I-A-Q2-212],I-A-Q2-212: log P (HCOOH): 2.27
3,COC(=O)c1ccc(-n2nc(C(F)(F)F)c(I)c2N)cc1C [XI-A-083],XI-A-083: log P (HCOOH): 3.48
4,Cc1cc(-n2nc(C)c(-c3ccc(F)cc3)c2N)ccc1C(=O)NCc1ccccn1 [I-A-Q2-367],I-A-Q2-367: log P (HCOOH): 1.59
5,CC(C)NC(=O)c1ccc(-n2nc(C(F)(F)F)c(-c3ccc(Br)cc3)c2N)cc1 [I-A-Q2-187],I-A-Q2-187: log P (HCOOH): 3.42
6,COc1cc(OC)nc(CNC(=O)c2ccc(-n3nc(C(F)(F)F)c(-c4cc(Cl)cc(Cl)c4)c3N)cc2C)n1 [I-A-Q2-255],I-A-Q2-255: log P (HCOOH): 4.40
7,Cc1cc(-n2nc(C)c(-c3ccc(F)cc3Cl)c2N)ccc1C(=O)NCC(F)(F)C(F)F [I-A-Q2-327],I-A-Q2-327: log P (HCOOH): 2.73
8,CCCCCNC(=O)c1ccc(-n2nc(C(F)(F)F)c(-c3cc(Cl)cc(Cl)c3)c2N)cc1C [I-A-Q2-237],I-A-Q2-237: log P (HCOOH): 4.76
9,Cc1cc(-n2nc(C(F)(F)F)c(-c3cccc(Br)c3)c2N)ccc1C(=O)NCc1ccccn1 [I-A-Q2-357],I-A-Q2-357: log P (HCOOH): 2.72
10,Cc1cc(-n2nc(C(F)F)c(-c3ccc(Cl)cc3)c2N)ccc1C(=O)NCc1ccccn1 [I-A-Q2-362],I-A-Q2-362: log P (HCOOH): 2.27
11,Nc1c(-c2ccc(Cl)cc2)c(C(F)(F)F)nn1-c1ccc(C(=O)NC2CC2)cc1 [I-A-Q2-163],I-A-Q2-163: log P (HCOOH): 3.13
12,Cc1cc(-n2nc(C3CC3)c(-c3ccc(Cl)cc3)c2N)ccc1C(=O)NCc1ccccn1 [I-A-Q2-381],I-A-Q2-381: log P (HCOOH): 2.46
13,Cc1cc(-n2nc(C)c(-c3ccc(Cl)cc3)c2N)ccc1C(=O)NCc1ccccn1 [I-A-Q2-366],I-A-Q2-366: log P (HCOOH): 1.91
14,Cc1cc(-n2nc(C(F)(F)F)c(-c3ccc(F)c(Cl)c3)c2N)ccc1C(=O)NCc1ccccn1 [I-A-Q2-352],I-A-Q2-352: log P (HCOOH): 2.76
15,Nc1c(-c2cc(Cl)cc(Cl)c2)c(C(F)(F)F)nn1-c1ccc(C(=O)NCC2CC2)cc1 [I-A-Q2-149],I-A-Q2-149: log P (HCOOH): 4.15
16,Cc1cc(-n2nc(C(F)(F)F)c(-c3ccc(Cl)c(Cl)c3)c2N)ccc1C(=O)NC(C)C(F)(F)F (stereo not drawn) [I-A-Q2-019],I-A-Q2-019: log P (HCOOH): 4.57

row,Structure (SMILES),log P (HCOOH)
1,Cc1cc(-n2nc(C(F)(F)F)c(-c3cc(Cl)cc(Cl)c3)c2N)ccc1C(=O)NCC(F)(F)C(F)(F)C(F)(F)C(F)(F)C(F)(F)C(F)(F)C(F)(F)F [I-A-Q2-267],I-A-Q2-267: log P (HCOOH): 6.14
2,Cc1cc(-n2nc(-c3ccccc3)c(-c3ccc(Cl)cc3)c2N)ccc1C(=O)NCC(F)(F)C(F)F [I-A-Q2-337],I-A-Q2-337: log P (HCOOH): 3.80
3,Cc1cc(-n2nc(C(F)(F)F)c(-c3cc(Cl)cc(Cl)c3)c2N)ccc1C(=O)NCCO [I-A-Q2-272],I-A-Q2-272: log P (HCOOH): 3.24
4,COC(=O)CC(NC(=O)c1ccc(-n2nc(C(F)(F)F)c(-c3cc(Cl)cc(Cl)c3)c2N)cc1C)c1ccccn1 (stereo not drawn) [I-A-Q2-057],I-A-Q2-057: log P (HCOOH): 2.72
5,CC(NC(=O)c1ccc(-n2nc(C(F)(F)F)c(-c3cc(Cl)cc(Cl)c3)c2N)nc1)C(F)(F)F (stereo not drawn) [I-A-Q2-100],I-A-Q2-100: log P (HCOOH): 4.96
6,Cc1cc(-n2nc(C)c(-c3ccc(F)cc3F)c2N)ccc1C(=O)NCC(F)(F)C(F)F [I-A-Q2-329],I-A-Q2-329: log P (HCOOH): 2.59
7,Cc1cc(-n2nc(C(F)(F)F)c(-c3cccc(Br)c3)c2N)ccc1C(=O)NCC1CC1 [I-A-Q2-416],I-A-Q2-416: log P (HCOOH): 3.81
8,CC(C)NC(=O)c1ccc(-n2nc(C(F)(F)F)c(-c3ccc(Cl)c(Cl)c3)c2N)cc1 [I-A-Q2-154],I-A-Q2-154: log P (HCOOH): 3.75
9,Cc1cc(-n2nc(C(F)(F)F)c(-c3cc(F)cc(F)c3)c2N)ccc1C(=O)NCC(F)(F)C(F)F [I-A-Q2-315],I-A-Q2-315: log P (HCOOH): 3.37
10,Cc1cc(-n2nc(C(F)(F)F)c(-c3cc(Cl)cc(Cl)c3)c2N)ccc1C(=O)NC(C)Cn1cccn1 (stereo not drawn) [I-A-Q2-243],I-A-Q2-243: log P (HCOOH): 3.78
11,COc1ccnc(CNC(=O)c2ccc(-n3nc(C(F)(F)F)c(-c4cc(Cl)cc(Cl)c4)c3N)cc2C)c1 [I-A-Q2-052],I-A-Q2-052: log P (HCOOH): 2.34
12,CNC(=O)c1ccc(-n2nc(C(F)(F)F)c(-c3cc(Cl)cc(Cl)c3)c2Br)nc1 [I-A-Q2-109],I-A-Q2-109: log P (HCOOH): 4.35
13,Cc1cc(-n2nc(C)c(-c3c(F)cccc3Cl)c2N)ccc1C(=O)NCc1ccccn1 [I-A-Q2-374],I-A-Q2-374: log P (HCOOH): 1.66
14,CC(NC(=O)c1ccc(-n2nc(C(F)(F)F)c(-c3cc(F)c(F)c(F)c3)c2N)cc1)c1ccccn1 (stereo not drawn) [I-A-Q2-196],I-A-Q2-196: log P (HCOOH): 2.84
15,Cc1cc(-n2nc(CC(C)C)c(-c3ccc(Cl)cc3)c2N)ccc1C(=O)NCC(F)(F)C(F)F [I-A-Q2-342],I-A-Q2-342: log P (HCOOH): 3.85
16,Cc1cc(-n2nc(C)c(-c3cc(Cl)ccc3Cl)c2N)ccc1C(=O)NCc1ccccn1 [I-A-Q2-375],I-A-Q2-375: log P (HCOOH): 2.04

# Same assay, conditions: HCOOH; Table 4, compounds of formula I-A-Q4
row,Structure (SMILES),log P (HCOOH)
1,Nc1c(-c2ccc(Cl)cc2Cl)c(C(F)(F)F)nn1-c1ccc(C(=O)O)cc1 [I-A-Q4-095],I-A-Q4-095: log P (HCOOH): 3.44
2,Nc1c(-c2cc(Cl)cc(Cl)c2)c(C(F)(F)F)nn1-c1ccc(Cl)cn1 [I-A-Q4-014],I-A-Q4-014: log P (HCOOH): 5.76
3,Nc1c(-c2ccc(F)cc2F)c(C(F)F)nn1-c1ccc(Cl)cn1 [I-A-Q4-056],I-A-Q4-056: log P (HCOOH): 3.84
4,Nc1c(-c2ccc(F)c(F)c2)c(C(F)(F)F)nn1-c1ccc(C(=O)O)cc1 [I-A-Q4-092],I-A-Q4-092: log P (HCOOH): 3.06
5,CN(C)c1cc(-n2nc(C(F)(F)F)c(-c3cc(Cl)cc(Cl)c3)c2N)ccc1C(=O)O [I-A-Q4-121],I-A-Q4-121: log P (HCOOH): 3.07
6,Cc1nn(-c2ccc(Cl)cn2)c(N)c1-c1cc(Cl)ccc1Cl [I-A-Q4-030],I-A-Q4-030 :log P (HCOOH): 4.57
7,FC(F)(F)c1nn(-c2ccc(I)cc2)c(I)c1-c1cc(Cl)cc(Cl)c1 [I-A-Q4-018],I-A-Q4-018: log P (HCOOH): 6.50

# Same assay, conditions: HPLC, reversed-phase C18, mobile phase with formic acid
row,Structure (SMILES),log P (HCOOH)
1,CCc1nn(-c2ccc(-n3cncn3)c(C#N)c2)c(N)c1-c1ccc(Cl)cc1 [I-A-Q1-062],I-A-Q1-062: log P (HCOOH): 3.09
2,COc1ccc(-c2c(C)nn(-c3ccc(-n4cncn4)c(C#N)c3)c2N)cc1 [I-A-Q1-058],I-A-Q1-058: log P (HCOOH): 2.11
3,N#Cc1cc(-n2nc(C(F)(F)F)c(-c3cc(Cl)cc(Cl)c3)c2N)ccc1-n1ccnc1C#N [I-A-Q1-077],I-A-Q1-077: log P (HCOOH): 4.05
4,Cc1nn(-c2ccc(-n3cncn3)c(C#N)c2)c(N)c1-c1cc(Cl)ccc1Cl [I-A-Q1-028],I-A-Q1-028: log P (HCOOH): 2.65
5,N#Cc1cc(-n2nc(C(F)(F)F)c(-c3ccccc3Cl)c2N)ccc1-n1cncn1 [I-A-Q1-035],I-A-Q1-035: log P (HCOOH): 2.80
6,N#Cc1cc(-n2nc(C(F)(F)F)c(-c3cc(Cl)cc(Cl)c3)c2N)ccc1-n1nc[nH]c1=O [I-A-Q1-026],I-A-Q1-026: log P (HCOOH): 3.37
